These results are taken from ChEMBL document CHEMBL1201862, “PubChem BioAssay data set” (2004).

Molecules are shown by their SMILES.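 How tested: cells in 96-well plates exposed to compound for 48 hours at five concentrations. Here, GI50 denotes the concentration required for 50% inhibition of growth.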 The source made the active and inactive calls. Rule as the data show it: active = GI50 up to about 1.1 µM and inactive = higher.

Holding throughout (assay): growth of human tumour cells (NCI), 48 h
Test [1] deals with SK-OV-3.
Test [2] has as its system EKVX.
For test [3], the system named is HT-29.
Test [4] relates to T47D.
Test [5] deals with Hs-578T.
Test [6] relates to SN12C.
Test [7] concerns TK-10.
The subject of test [8] is NCI-H226.
Test [9] relates to MDA-MB-231.
The subject of test [10] is U-251.
Test [11] deals with HOP-92.
For test [12], the system named is HL-60.
Test [13] has as its system SK-MEL-2.
In test [14] the test system is A498.
Test [15] concerns NCI-H460.
Test [16] has as its system UO-31.
For test [17], the system named is RXF 393.
Test [18] concerns IGROV-1.
Test [19] concerns NCI-H522.
Test [20] concerns NCI/ADR-RES.

With `Cc1ccc(/C=C2\CCC/C(=C\c3ccc(O)c(CN4CCCCC4)c3)C2=O)cc1`, the GI50 in test [1] is 13.2 µM (inactive); in test [2], 12.6 µM (inactive); in test [3] it was 1.87 µM (inactive); in [4] it was 13.4 µM (inactive); in test [5] it was 7.78 µM (inactive); in test [6], 9.82 µM (inactive). The GI50 in test [7] was 14.6 µM (inactive); in [8] it was 7.55 µM (inactive); in [9], 5.41 µM (inactive); in test [10], 5.27 µM (inactive); in test [11], 9.71 µM (inactive); in test [12], 3.52 µM (inactive). The GI50 in test [13] was 19.9 µM (inactive); in [14] it was 3.1 µM (inactive); in test [15], 3.96 µM (inactive); in test [16] it was 11.2 µM (inactive); in [17] it was 14.1 µM (inactive); in test [18], 8.02 µM (inactive). For the same compound, the GI50 was 3.85 µM (inactive) in [19] and 4.07 µM (inactive) in [20].

With `C/C=C/CC(C(=O)OCC)(N(C)C(=O)OC(C)(C)C)S(=O)(=O)c1ccc(C)cc1` (stereo not drawn), the GI50 in [2] was > 100 µM (inactive); in test [3], 39.4 µM (inactive); in test [4] it was > 100 µM (inactive); in test [5] it was > 100 µM (inactive); in test [6], > 100 µM (inactive); in test [7] it was > 100 µM (inactive). Also, the GI50 in test [8] is > 100 µM (inactive); in [9], > 100 µM (inactive); in test [10], 81.5 µM (inactive); in [11], > 100 µM (inactive); in [12] it was 45.3 µM (inactive); in test [13], 51.6 µM (inactive). In addition, the GI50 is > 100 µM (inactive) in test [14]; > 100 µM (inactive) in [16]; > 100 µM (inactive) in test [17]; 68.7 µM (inactive) in test [18]; 57.7 µM (inactive) in [19]; 69.2 µM (inactive) in test [20].

On to `[O-][N+]1(CC[N+]2([O-])CCCCC2)CCCCC1`, for which the GI50 in test [1], in test [2], in [3], in [4], in test [5] and in test [6] was > 100 µM (inactive) in each case. Also, the GI50 in [7], in test [8], in test [9], in test [10], in [11] and in test [12] was > 100 µM (inactive) in each case. Moreover, the GI50 in test [13], in [14], in [15], in test [16], in test [17] and in test [18] was > 100 µM (inactive) in each case. For the same compound, the GI50 in [19] and in [20] was > 100 µM (inactive) throughout.

Consider `Clc1cc(-c2ccccc2)nc(Nc2nc3ccccc3[nH]2)n1`, for which the GI50 is 64.7 µM (inactive) in [1]; 24 µM (inactive) in test [2]; 15 µM (inactive) in [3]; > 100 µM (inactive) in test [4]; 27.3 µM (inactive) in [5]; 28.2 µM (inactive) in test [6]. Besides, the GI50 in test [7] was > 100 µM (inactive); in test [8] it was 55.5 µM (inactive); in test [9], 15 µM (inactive); in [10], 15.3 µM (inactive); in test [11] it was 2.2 µM (inactive); in test [12], 0.832 µM (active). Moreover, the GI50 in test [13] was > 10 µM (inactive); in test [14], 33.3 µM (inactive); in test [15] it was 19 µM (inactive); in test [16], 55 µM (inactive); in test [17], 4.27 µM (inactive); in [18] it was 14.7 µM (inactive). The GI50 is 11.4 µM (inactive) in test [19] and 43.5 µM (inactive) in [20].

Take `COc1cc(S(=O)(=O)Nc2ccc(-c3csc(/N=C\c4ccccc4)n3)cc2)ccc1Cl`: the GI50 in test [1] is > 100 µM (inactive); in [2], 30.3 µM (inactive); in [3] it was 44.2 µM (inactive); in test [4] it was 35.9 µM (inactive); in test [5] it was 53.3 µM (inactive); in test [6], > 100 µM (inactive). Besides, the GI50 was 75.2 µM (inactive) in test [8]; 37.2 µM (inactive) in test [9]; > 100 µM (inactive) in test [11]; 25.6 µM (inactive) in [12]; 25.2 µM (inactive) in [13]; 37.5 µM (inactive) in test [14]. Further, the GI50 in test [16] is 74.3 µM (inactive); in [17] it was 1.44 µM (inactive); in [18] it was > 100 µM (inactive); in test [19], 29.9 µM (inactive); in [20] it was > 100 µM (inactive).

With `CCP(=O)(OC)C1=CCN(C(=O)OCC[Si](C)(C)C)CC1` (stereo not drawn), the GI50 in [1], in test [2], in test [3], in [4], in test [5] and in test [7] was > 100 µM (inactive) throughout. Also, the GI50 in [8], in test [9], in test [10], in [11], in test [12] and in test [13] was > 100 µM (inactive) each time. Also, the GI50 in [14], in test [15], in test [16], in test [17], in test [18] and in [19] was > 100 µM (inactive) in each case. In test [20], the GI50 was > 100 µM (inactive).

With `CCN(CC)c1nc(=O)c(C(=O)C(C)(C)C)c(C(C)(C)C)o1`, the GI50 in test [1], in test [2], in test [3], in [4], in test [5] and in [6] was > 100 µM (inactive) throughout. Moreover, the GI50 in test [7], in test [8], in test [9], in [10], in test [11] and in test [12] was > 100 µM (inactive) throughout. The GI50 in test [13], in test [14], in [15], in [17], in test [18] and in [19] was > 100 µM (inactive) each time. Moreover, the GI50 in test [20] is > 100 µM (inactive).
